We go through six compounds from patent publication US20260297081A1, “COMPOUNDS AND METHODS OF TREATING CANCERS” (Cullgen Inc., priority 2023, published 2026).

Some results are limits rather than exact numbers.

In test [1] the test system is Calu-1 cells. The experiment in a line: Anti-proliferation (viability) of NSCLC Calu-1 cells, 3 days (Table 7, FIG. 2B). The format is cell-based. As to conditions: Homo sapiens, 72 h; Calu-1 cells, 3 days, 10-point serial dilution; read-out: GI IC50 in Calu-1. The method, boiled down:
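Seed cells, add compound in ten serially diluted concentrations, then incubate (Calu-1: 3 days; T47D: 6 days) before measuring viability.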

Test [2] relates to MCF7 cells. The experiment in a line: Anti-proliferation (viability) of MCF7 cells (Table 7, FIG. 2B). As to conditions: Homo sapiens, MCF7, MCF7 cells, 3-6 days, 10-point serial dilution; read-out: GI IC50 in MCF-7. The format is cell-based.

On to `CC(=O)c1c(C)c2cnc(Nc3ccc(N4CCN(CC(=O)NC5CC6(C5)CC(Nc5nc(NC(C)C)ccc5C(=O)Nc5cn7c(n5)CCC7)C6)CC4)cn3)nc2n(C2CCCC2)c1=O` (stereo not drawn) [CPD-566, 2-((6-(2-(4-(6-((6-acetyl-8-cyclopentyl-5-methyl-7-oxo-7,8-dihydropyrido[2,3-d]pyrimidin-2-yl)amino)pyridin-3-yl)piperazin-1-yl)acetamido)spiro[3.3]heptan-2-yl)amino)-N-(6,7-dihydro-5H-pyrrolo[1,2-a]imidazol-2-yl)-6-(isopropylamino)nicotinamide], for which the IC50 (usually the concentration needed to halve the response being measured) is ≤ 10 nM in test [1] and < 50 nM in test [2].

As for `CC(=O)c1c(C)c2cnc(Nc3ccc(N4CCN(CC(=O)N[C@H]5CC[C@H](CNc6nc(NC(C)C)ccc6C(=O)Nc6cn(C)c(C7CC7)n6)CC5)CC4)cn3)nc2n(C2CCCC2)c1=O` [CPD-275, 2-(((trans-4-(2-(4-(6-((6-acetyl-8-cyclopentyl-5-methyl-7-oxo-7,8-dihydropyrido[2,3-d]pyrimidin-2-yl)amino)pyridin-3-yl)piperazin-1-yl)acetamido)cyclohexyl)methyl)amino)-N-(2-cyclopropyl-1-methyl-1H-imidazol-4-yl)-6-(isopropylamino)nicotinamide], the IC50 in test [1] is ≥ 50 nM; in test [2], > 100 nM.

Turning to `CNc1ccc(C(=O)Nc2cc(C)on2)c(NC2CC(CNC(=O)CN3CCN(c4ccc(Nc5ncc6c(C)c(C(C)=O)c(=O)n(C7CCCC7)c6n5)nc4)CC3)C2)n1` (stereo not drawn) [CPD-281, 2-((3-((2-(4-(6-((6-acetyl-8-cyclopentyl-5-methyl-7-oxo-7,8-dihydropyrido[2,3-d]pyrimidin-2-yl)amino)pyridin-3-yl)piperazin-1-yl)acetamido)methyl)cyclobutyl)amino)-6-(methylamino)-N-(5-methylisoxazol-3-yl)nicotinamide], the IC50 in test [1] is 10 to 50 nM; in test [2], > 100 nM.

Regarding `CC(=O)c1c(C)c2cnc(Nc3ccc(N4CCN(C5CCN(C(=O)N6CCC7(CCC(Nc8nc(NC(C)C)ccc8C(=O)Nc8ccc(N(C)C)nn8)C7)C6)C5)CC4)cn3)nc2n(C2CCCC2)c1=O` (stereo not drawn) [CPD-561, 2-((2-(3-(4-(6-((6-acetyl-8-cyclopentyl-5-methyl-7-oxo-7,8-dihydropyrido[2,3-d]pyrimidin-2-yl)amino)pyridin-3-yl)piperazin-1-yl)pyrrolidine-1-carbonyl)-2-azaspiro[4.4]nonan-7-yl)amino)-N-(6-(dimethylamino)pyridazin-3-yl)-6-(isopropylamino)nicotinamide], the half-maximal inhibitory concentration (IC50) in test [1] was ≤ 10 nM; in test [2] it was > 100 nM.

On to `CC(=O)c1c(C)c2cnc(Nc3ccc(N4CCC(N5CCC(C(=O)NCC6CC(Nc7nc(NC(C)C)ccc7C(=O)Nc7ccc(N(C)C)nn7)C6)C5)CC4)cn3)nc2n(C2CCCC2)c1=O` (stereo not drawn) [CPD-461, 2-((3-((1-(1-(6-((6-acetyl-8-cyclopentyl-5-methyl-7-oxo-7,8-dihydropyrido[2,3-d]pyrimidin-2-yl)amino)pyridin-3-yl)piperidin-4-yl)pyrrolidine-3-carboxamido)methyl)cyclobutyl)amino)-N-(6-(dimethylamino)pyridazin-3-yl)-6-(isopropylamino)nicotinamide], for which the IC50 was ≤ 10 nM in test [1] and 50 to 100 nM in test [2].

For `CC(=O)c1c(C)c2cnc(Nc3ccc(N4CCN(C5CCN(C(=O)C67CC(Nc8nc(NC(C)C)ccc8C(=O)Nc8ccc(N(C)C)nn8)(C6)C7)C5)CC4)cn3)nc2n(C2CCCC2)c1=O` (stereo not drawn) [CPD-534, 2-((3-(3-(4-(6-((6-acetyl-8-cyclopentyl-5-methyl-7-oxo-7,8-dihydropyrido[2,3-d]pyrimidin-2-yl)amino)pyridin-3-yl)piperazin-1-yl)pyrrolidine-1-carbonyl)bicyclo[1.1.1]pentan-1-yl)amino)-N-(6-(dimethylamino)pyridazin-3-yl)-6-(isopropylamino)nicotinamide], the concentration for half-maximal inhibition (IC50) was ≤ 10 nM in test [1] and < 50 nM in test [2].
